Experimental data taken from US12414990B2, “Use of HLA-A*11:01-restricted hepatitis B virus (HBV) peptides for identifying HBV-specific CD8+ T cells” (AGENCY FOR SCIENCE, TECHNOLOGY AND RESEARCH, priority 2019, dated 2025).

What was measured:
[1] = tested on: HLA-A*11:01-restricted antigen-specific CD8+ T cells in patient's PBMC; experiment: Highly multiplexed combinatorial pMHC tetramer staining with mass cytometry (epitope mapping, frequency of antigen-specific CD8+ T cells)
[2] = tested on: antigen-specific CD8+ T cells; experiment: High-dimensional phenotypic profiling of antigen-specific CD8+ T cells (t-SNE, Phenograph, One-SENSE, Scorpius); type: cell-based, human; settings: ex vivo
Description: Validated antigen-specific CD8+ T cells were exported individually from each donor for dimensionality reduction analysis. Detailed methodology for t-SNE and One-SENSE can be found elsewhere. Briefly, t-SNE and One-SENSE were performed using custom R scripts based on “flowCore” and “Rtsne” packages downloaded from The Comprehensive R Archive Network (CRAN). All data were transformed using the “logicleTransform” function and w=0.25, t=16409, m=4.5, a=0 as input parameters to roughly match scaling historically used in FlowJo. Cellular markers analyzed by t-SNE and One-SENSE were indicated (table S2). For One-SENSE, cellular markers in each T cell category (“Differentiation+TNFR”, “Exhaustion” and “Trafficking”) were subjectively assigned for categorical analysis. Aligned heatplots represent the distribution of marker positive cells in percentage on each “bin” on the axis (category) constructed by cells residing in small ranges of values. Positive population of markers was manually defined and markers of the same category were combined for each dimension using 250 bins.
Logistic regression was performed using the drc R package (v 3.0.1) using a 3-parameters logistic model.

[3] = Inactive Carrier (InA) CHB patients, patients with detected tetramer+ CD8+ T cells (frequency > 0.002%) / patients in the group, per epitope cluster
[4] = patients with detected epitope-specific CD8+ T cells / patients tested, Inactive Carrier (InA) group, Freq > 0.002%
[5] = patients with detected epitope-specific CD8+ T cells / patients tested, Immune Tolerant (IT) group, Freq > 0.002%
[6] = patients with detected epitope-specific CD8+ T cells / patients tested, acute resolved (R) group, Freq > 0.002%
[7] = patients with detected epitope-specific CD8+ T cells / patients tested, Immune Active (IA) group, Freq > 0.002%
[8] = Immune Active (IA) patients, donors with tetramer+ CD8+ T cell frequency > 0.002% / donors tested
[9] = Immune Tolerant (IT) patients, donors with tetramer+ CD8+ T cell frequency > 0.002% / donors tested
[10] = Inactive Carrier (InA) patients, donors with tetramer+ CD8+ T cell frequency > 0.002% / donors tested
[11] = acute resolved (R) patients, donors with tetramer+ CD8+ T cell frequency > 0.002% / donors tested
[12] = Immune Active (IA) CHB patients, patients with detected tetramer+ CD8+ T cells (frequency > 0.002%) / patients in the group, per epitope cluster
[13] = Immune Tolerant (IT) CHB patients, patients with detected tetramer+ CD8+ T cells (frequency > 0.002%) / patients in the group, per epitope cluster
[14] = Acute resolved (R) patients, patients with detected tetramer+ CD8+ T cells (frequency > 0.002%) / patients in the group, per epitope cluster

AGFFLLTK
Hits (Freq > 0.002%) InA [1, 3]: 1/13

AMGDAGGYK
Hits (Freq > 0.002%) InA [1, 4]: 1/13

ASCMGLIYNR
Hits (Freq > 0.002%) IT [1, 5]: 1/8 | Hits (Freq > 0.002%) InA [1, 4]: 1/13 | Hits (Freq > 0.002%) R [1, 6]: 1/12

ATVLMGLGK
Hits (Freq > 0.002%) IA [1, 7]: 1/12 | Hits (Freq > 0.002%) IT [1, 5]: 1/8 | Hits (Freq > 0.002%) InA [1, 4]: 1/13

ATVQGQNLK
Hits (Freq > 0.002%) IA [1, 7]: 2/12 | Hits (Freq > 0.002%) IT [1, 5]: 3/8 | Hits (Freq > 0.002%) InA [1, 4]: 9/13 | Hits (Freq > 0.002%) R [1, 6]: 4/12

AVVRRRCRSPR
Hits (Freq > 0.002%) IA [1, 8]: 6/12 | Hits (Freq > 0.002%) IT [1, 9]: 3/8 | Hits (Freq > 0.002%) InA [1, 10]: 2/13 | Hits (Freq > 0.002%) R [1, 11]: 1/12

CSCPTVQASK
Hits (Freq > 0.002%) InA [1, 4]: 2/13

GILPRSSVGPR
Hits (Freq > 0.002%) IA [1, 12]: 1/12 | Hits (Freq > 0.002%) InA [1, 3]: 3/13

GSCIQSQLRK
Hits (Freq > 0.002%) IT [1, 13]: 1/8

GSTHVSWPK
Hits (Freq > 0.002%) IA [1, 8]: 1/12 | Hits (Freq > 0.002%) IT [1, 9]: 1/8

GTLPQEHIVLK
Hits (Freq > 0.002%) R [1, 11]: 1/12

GTSGSPIVNR
Hits (Freq > 0.002%) IA [1, 7]: 4/12 | Hits (Freq > 0.002%) IT [1, 5]: 5/8 | Hits (Freq > 0.002%) InA [1, 4]: 4/13 | Hits (Freq > 0.002%) R [1, 6]: 4/12

GVWIRTPPAYR
Hits (Freq > 0.002%) InA [1, 4]: 1/13

HBV-C-195v2: HBV core epitope, cluster 283, 1 unique peptide (RSQSPRRRRSK; Hepatitis B virus)
detection / frequency of epitope-specific CD8+ T cells across patient groups ([1]; ex vivo PBMC, groups IT, IA, InA, R, HD, CB): highest frequencies observed | phenotype of tetramer-stained epitope-specific CD8+ T cells [2]: mostly naïve-like phenotype

HTLWKAGILYK
Hits (Freq > 0.002%) R [1, 14]: 2/12 | Hits (Freq > 0.002%) IA [1, 12]: 4/12 | Hits (Freq > 0.002%) IT [1, 13]: 1/8 | Hits (Freq > 0.002%) InA [1, 3]: 1/13

IVQKIKMCFRK
Hits (Freq > 0.002%) IA [1, 8]: 1/12 | Hits (Freq > 0.002%) IT [1, 9]: 1/8 | Hits (Freq > 0.002%) R [1, 11]: 2/12

KIKMCFRK
Hits (Freq > 0.002%) IT [1, 9]: 2/8 | Hits (Freq > 0.002%) R [1, 11]: 1/12

KLVGINMSKK
Hits (Freq > 0.002%) InA [1, 4]: 1/13

KSGAIKVLK
Hits (Freq > 0.002%) InA [1, 4]: 1/13

KTAYSHLSTSK
Hits (Freq > 0.002%) R [1, 14]: 7/12 | Hits (Freq > 0.002%) IT [1, 13]: 8/8

KTFDSEYVK
Hits (Freq > 0.002%) R [1, 6]: 1/12

KTFVDLMRR
Hits (Freq > 0.002%) IA [1, 7]: 1/12

KTYGRKLHLY
Hits (Freq > 0.002%) IT [1, 9]: 1/8 | Average of hits (%) IT ([1]; Immune Tolerant (IT) patients, mean frequency of antigen-specific CD8+ T cells among hits): 0.002007%

KVFVLGGCRHK
Hits (Freq > 0.002%) IA [1, 7]: 1/12 | Hits (Freq > 0.002%) IT [1, 5]: 1/8 | Hits (Freq > 0.002%) R [1, 6]: 2/12

LLYKTFGRK
Hits (Freq > 0.002%) IA [1, 8]: 5/12 | Hits (Freq > 0.002%) IT [1, 9]: 4/8 | Hits (Freq > 0.002%) InA [1, 10]: 5/13 | Hits (Freq > 0.002%) R [1, 11]: 1/12

LQAGFFLLTK
Hits (Freq > 0.002%) IA [1, 12]: 1/12

LSLGIHLNPNK
Hits (Freq > 0.002%) IA [1, 8]: 3/12 | Hits (Freq > 0.002%) InA [1, 10]: 1/13

LSYLHFRK
Hits (Freq > 0.002%) R [1, 14]: 2/12 | Hits (Freq > 0.002%) IA [1, 12]: 4/12 | Hits (Freq > 0.002%) IT [1, 13]: 3/8 | Hits (Freq > 0.002%) InA [1, 3]: 1/13

LTFGRETVLE
Hits (Freq > 0.002%) InA [1, 4]: 1/13 | Hits (Freq > 0.002%) R [1, 6]: 1/12

LTINENRRLK
Hits (Freq > 0.002%) IA [1, 12]: 1/12

LVFQTSER
Hits (Freq > 0.002%) R [1, 14]: 1/12 | Hits (Freq > 0.002%) InA [1, 3]: 1/13

LVVDFSQFSR
Hits (Freq > 0.002%) IA [1, 8]: 9/12 | Hits (Freq > 0.002%) IT [1, 9]: 5/8 | Hits (Freq > 0.002%) InA [1, 10]: 9/13 | Hits (Freq > 0.002%) R [1, 11]: 9/12

LVYRPTTGR
Hits (Freq > 0.002%) IA [1, 8]: 1/12 | Hits (Freq > 0.002%) InA [1, 10]: 1/13

MATYGWNLVK
Hits (Freq > 0.002%) IA [1, 7]: 1/12 | Hits (Freq > 0.002%) InA [1, 4]: 1/13

MLLYKTYGRK
Hits (Freq > 0.002%) InA [1, 10]: 1/13

MSMTDLEAYFK
Hits (Freq > 0.002%) IA [1, 7]: 1/12 | Hits (Freq > 0.002%) R [1, 6]: 1/12

MVSRLLLNR
Hits (Freq > 0.002%) IA [1, 7]: 1/12

NLNVSIPWTHK
Hits (Freq > 0.002%) R [1, 14]: 1/12 | Hits (Freq > 0.002%) IA [1, 12]: 8/12 | Hits (Freq > 0.002%) IT [1, 13]: 4/8 | Hits (Freq > 0.002%) InA [1, 3]: 3/13

PSFPHIHLK
Hits (Freq > 0.002%) R [1, 14]: 1/12 | Hits (Freq > 0.002%) IT [1, 13]: 1/8

PTYKAFLSK
Hits (Freq > 0.002%) IA [1, 8]: 2/12 | Hits (Freq > 0.002%) IT [1, 9]: 1/8 | Hits (Freq > 0.002%) InA [1, 10]: 2/13 | Hits (Freq > 0.002%) R [1, 11]: 1/12

QQGSMASGK
Hits (Freq > 0.002%) InA [1, 3]: 1/13

QSSGILSR
Hits (Freq > 0.002%) R [1, 14]: 1/12
